Results as given in patent US4582821A, “Inhibition of cyclic nucleotide independent protein kinases” (E. I. Du Pont de Nemours and Company, priority 1983, dated 1986).

Target: T1, A-431 cell EGF receptor (Homo sapiens, UniProt P00533)
T1 construct: intact A-431 cell membranes were employed, rather than solubilized extracts; endogenous in cells; host or cells: A-431 human epidermoid carcinoma cells (plasma membranes)
Experiment: Protein phosphorylation of A-431 cell membrane EGF receptors (intact membranes, EGF present)
Assay type: biochemical
Details: 600 nmoles/mg protein, intact A-431 membranes
Outline: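 Intact A-431 membranes with 1 mM ouabain, 20 mM Hepes pH 7.4, 1 mM MnCl2 and 100 ng EGF, preincubated with peptide halomethyl ketones (ethanol vehicle) ~23° for 10 min, then 10 min at 0°. Phosphorylation started with 15 μM [γ-32P]ATP, run 6 min at 0°; TCA-precipitated radioactivity counted by scintillation.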

T1 sequence (P00533 25-1210): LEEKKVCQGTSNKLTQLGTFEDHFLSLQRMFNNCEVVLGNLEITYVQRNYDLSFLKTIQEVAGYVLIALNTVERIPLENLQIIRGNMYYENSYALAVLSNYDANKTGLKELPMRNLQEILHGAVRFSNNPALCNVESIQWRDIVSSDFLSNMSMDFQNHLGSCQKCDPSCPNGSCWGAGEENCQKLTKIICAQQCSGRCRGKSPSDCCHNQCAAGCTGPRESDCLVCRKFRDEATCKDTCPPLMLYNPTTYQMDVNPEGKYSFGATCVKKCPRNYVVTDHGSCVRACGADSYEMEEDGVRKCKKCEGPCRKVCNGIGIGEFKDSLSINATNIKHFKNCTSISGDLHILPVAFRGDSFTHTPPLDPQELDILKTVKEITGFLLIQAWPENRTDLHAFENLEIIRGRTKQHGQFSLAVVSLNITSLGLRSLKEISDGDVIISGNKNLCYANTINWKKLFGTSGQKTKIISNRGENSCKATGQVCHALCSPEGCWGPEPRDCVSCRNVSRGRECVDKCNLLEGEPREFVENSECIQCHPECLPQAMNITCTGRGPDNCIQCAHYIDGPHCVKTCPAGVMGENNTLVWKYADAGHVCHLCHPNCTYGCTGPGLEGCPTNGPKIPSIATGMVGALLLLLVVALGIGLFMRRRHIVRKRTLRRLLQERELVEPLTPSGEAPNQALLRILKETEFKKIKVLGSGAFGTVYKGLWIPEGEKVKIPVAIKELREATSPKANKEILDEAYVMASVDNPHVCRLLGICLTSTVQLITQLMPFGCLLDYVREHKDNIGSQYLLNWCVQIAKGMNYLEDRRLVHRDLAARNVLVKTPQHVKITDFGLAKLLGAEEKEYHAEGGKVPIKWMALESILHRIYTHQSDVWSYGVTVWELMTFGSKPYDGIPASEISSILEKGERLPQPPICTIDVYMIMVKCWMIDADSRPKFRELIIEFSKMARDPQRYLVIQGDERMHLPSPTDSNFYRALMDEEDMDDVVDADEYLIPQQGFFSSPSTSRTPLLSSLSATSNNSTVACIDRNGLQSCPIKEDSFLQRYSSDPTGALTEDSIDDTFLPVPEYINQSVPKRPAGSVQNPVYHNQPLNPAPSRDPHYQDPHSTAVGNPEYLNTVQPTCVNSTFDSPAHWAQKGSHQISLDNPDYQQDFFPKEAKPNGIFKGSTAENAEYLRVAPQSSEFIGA

Compound: CC(C)CC(NC(=O)OC(C)(C)C)C(=O)CBr (stereo not shown) [Boc-LeuCH2 Br]
- % inhibition: 29%
